For one data set, the system named is MT-4 cell. The following applies: non-infected MT-4 cell, 5 days, MTT.
The conditions of data set [1]: 30 min.
Experimental: (§1) • 1) in vitro activity: A phorbol derivative was dissolved in an amount of 1.0 mg in 1.0 ml of DMSO to obtain a concentrated solution. A sample to be tested was prepared by diluting the concentrated solution with a saline or a phosphate buffer to a predetermined concentration. • 2) stability in blood: 1 ml of blood from the abdominal aorta of 6- to 7-week-old BALB/c male mouse was withdrawn in an injector in which 0.1 ml of 3.8% sodium citrate was contained, and centrifuged at 5000 rpm for 10 minutes to obtain a plasma. The plasma was added in a solution to be tested in a proportion of 9:1 to prepare a diluted solution to be tested in a predetermined concentration of 10-fold dilution. The diluted solution was incubated at 37° C. for 30 minutes to prepare a sample to be tested. • 3) in situ activity: the above-mentioned sample to be tested 1) was orally administered to 6- to 7-week-old BALB/c male mouse in a dose of 1 mg/kg, at 20, 40 and 60 minutes after the administration, blood was withdrawn from the abdominal aorta under light anesthetization similarly to those of the 2) above, and the plasma from the blood was used as a sample to be tested.
The next data set relates to HIV-1 IIIB. The settings on record: for Anti-HIV Activity EC50: MT-4 cell infected with T-cell tropic strain HIV-1 IIIB, MOI 0.01, 5 days, MTT; for Safety Index S.I. CC50/EC50 / anti-HIV activity in vitro (in words): MT-4 cell, HIV-1 IIIB.
The conditions of data set [2]: mouse plasma 37° C. 30 min / living organism.
Experimental: as §1
The test system of another data set is HIV-1 JRCSF. The settings on record: NPB-11 1 ng/ml, PBMC infected with HIV-1 JRCSF, 7 days.

Experimental for HIV-1 IIIB: (§2) For this experiment, human T-cell leukemia virus I (HTLV-I) infected T cell strain, MT-4 cell and T cell leukemia cell strain, MOLT-4 (clone No. 8) cell, HIV-1 continuous infection cell, MOLT-4/IIIB cell were used. The cell was cultured in RPMI-1640 medium (SIGMA) supplemented with 10% inactivated fetal calf plasma (FCS) (MOREGATE, Australia), 100 μg/ml streptomycin and 100 U/ml penicillin G (SIGMA) under a condition of 5% CO2 and 37° C. Subculture was performed every three days by controlling the density to 30×10^4 cells/ml.
HIV-1 IIIB was prepared from the supernatant of MOLT-4/IIIB cell.
MOLT-4/IIIB cell was controlled to a density of 30×10^4 cells/ml and then the culture was started. The cultured liquid was collected three days later, and centrifuged at 3000 rpm for 10 minutes at 4° C. […] These supernatants were passed through 0.45 μm filter. The virus stocks were frozen and stored at −80° C. The amount of virus was adjusted depending on an amount of p24.
• 1) in vitro activity: A phorbol derivative was dissolved in an amount of 1.0 mg in 1.0 ml of DMSO to obtain a concentrated solution.
(§3) The anti-HIV activity of each sample to be tested was evaluated by measuring inhibition activity against cytopathogenicity induced by HIV-1 according to MTTassay. The assay was performed in a triplicate mode, and anti-HIV activity and cytotoxicity were measured simultaneously.
(§4) 96-well plate was used, 10% FCS/RPMI-1640 medium was added in inner 60 wells in an amount of 100 μl/well, and in outer 36 wells in an amount of 200 μl/well in order to prevent evaporation.
(§5) The samples to be tested that were adjusted with RPMI-1640 medium were added in an amount of 25 μl/well in the first lane of the inner 60 wells, and 5-fold stepwise dilution series were prepared by manipulating pipette. In addition, in the last lane, no sample to be tested was added and regarded as control. MT-4 cell suspended in 30×10^4 cells/ml was prepared in two flasks, and the cells in one flask were infected with HIV-1 IIIB in a multiplicity of infection (MOI) of 0.01. The infected or non-infected MT-4 cells were immediately added to samples to be tested in an amount of 100 μl/ml, and cultured under a condition of 5% CO2 and 37° C.
5 days later, the viability of cells was measured based on MTT method by use of Titertek Multiskan.
Experimental for HIV-1 JRCSF: JRCSF was obtained by culturing 293T cell transfected with 15 μg of virus DNA and collecting the cultured liquid two days later. These supernatants were passed through 0.45 μm filter. The virus stocks were frozen and stored at −80° C. The amount of virus was adjusted depending on an amount of p24.
The infection to peripheral blood mononuclear cells (PBMC) of JRCSF and the evaluation of the anti-HIV activity were performed as follows. 1×10^6 cells/ml of PBMC was inoculated with JRCSF having 20 ng of p24, and the cells were washed 2 hours later. Thereafter, the cells were cultured in a culture liquid containing an agent to be tested for 7 days, and the antiviral activity was detected by measuring p24.
The anti-HIV effect was evaluated by determining the amount of p24 that is one of viral gap proteins and calculating its reduced amount.
Experimental for MT-4 cell: as §2, §3, §4, §5
5 days later, the viability of cells was measured based on MTT method by use of Titertek Multiskan. MTT adjusted to 7.5 mg/ml with PBS (Ca++, Mg++*free phosphate-buffered saline) was added in an amount of 20 μl/well, and cultured under a condition of 5% CO2 and 37° C., 150 μl of the cultured supernatant was removed and then 100 μl of cytolysis solution (5% (v/v)TritonX-100/acid isopropanol) was added and stirred on a plate mixer for 30 minutes.
The absorbance (reference wavelength: 690 nm) was determined with a plate reader at 540 nm. […] Further, ratio of CC50 to EC50, that is, selective index (SI=CC50/EC50) was calculated.

Turning to `CCCCCCCCCC(=O)OC12C(OC(C)=O)C(C)C3(O)C(C=C(CO)CC4(O)C(=O)C(C)=CC43)C1C2(C)C` (centres unmarked) [Sample N-6, reference compound], the “Cytotoxicity CC50” value in the data set with MT-4 cell was 3.2638 µg/mL. For the same molecule, in data set [1], the “Heat Stability 56° C., 30′” value is reported as “Stable”. Moreover, in the data set with HIV-1 IIIB, the “Anti-HIV Activity EC50” value came to 1.7 ng/mL, the “Safety Index S.I. CC50/EC50” value is given as 1920 and the “anti-HIV activity in vitro (in words)” value was “extremely strong anti-HIV activity”.
Consider `CCCCCCCCCC(=O)OC12C(OC)C(C)C3(O)C(C=C(CO)CC4(O)C(=O)C(C)=CC43)C1C2(C)C` (centres unmarked) [NPB-13], for which, in the data set on MT-4 cell, the “Cytotoxicity CC50” value is 4.6173 µg/mL. Besides, the “Biological Stability” value in data set [2] was “Stable”. In the data set with HIV-1 IIIB, the “Anti-HIV Activity EC50” value came out at 118.9 ng/mL, the “Safety Index S.I. CC50/EC50” value is listed as 39 and the “anti-HIV activity in vitro (in words)” value is reported as “weak activity”.
With `CCCCCCCCCC(=O)OC12C(OCOC)C(C)C3(O)C(C=C(CO)CC4(O)C(=O)C(C)=CC43)C1C2(C)C` (centres unmarked) [NPB-11], the “amount of viral protein p24 (antiviral effect)” value in the data set with HIV-1 JRCSF is reported as “little viral protein was detected”. In addition, the “Cytotoxicity CC50” value in the data set with MT-4 cell was found to be 6.9123 µg/mL. For the same molecule, in the data set on HIV-1 IIIB, the “Anti-HIV Activity EC50” value worked out at 1.7 ng/mL, the “Safety Index S.I. CC50/EC50” value is 4066 and the “anti-HIV activity in vitro (in words)” value was “strong activity”.
On to `CCCCCCCCCC(=O)OC12C(OCC)C(C)C3(O)C(C=C(CO)CC4(O)C(=O)C(C)=CC43)C1C2(C)C` (centres unmarked) [NPB-14], for which the “Cytotoxicity CC50” value in the data set with MT-4 cell is 3.3240 µg/mL. Moreover, the “Heat Stability 56° C., 30′” value in data set [1] is “unstable to heat compared with NPB-11”. Moreover, in data set [2], the “Biological Stability” value is on record as “Stable”. In the data set with HIV-1 IIIB, the “Anti-HIV Activity EC50” value is 195.7 ng/mL, the “Safety Index S.I. CC50/EC50” value is 17 and the “anti-HIV activity in vitro (in words)” value is “weak activity”.
In the case of `CCCCCCCCCC(=O)OC12C(OC(=O)CCC)C(C)C3(O)C(C=C(CO)CC4(O)C(=O)C(C)=CC43)C1C2(C)C` (centres unmarked) [NPB-9], the “Cytotoxicity CC50” value in the data set on MT-4 cell was 125 µg/mL. Moreover, in the data set on HIV-1 IIIB, the “Anti-HIV Activity EC50” value is more than 1000 ng ng/ml, the “Safety Index S.I. CC50/EC50” value is 125< and the “anti-HIV activity in vitro (in words)” value is on record as “lowered in the activity”.
Taken in the same sequence, the figures for `CCCCCCCCCC(=O)OC12C(OC(=O)CC)C(C)C3(O)C(C=C(CO)CC4(O)C(=O)C(C)=CC43)C1C2(C)C` (centres unmarked) [NPB-5] were 125 µg/mL, more than 1000 ng ng/ml, 125< and “lowered in the activity”.

(Values after US7662852B2, “Compounds and preparations having antiviral effect” (Lead Chemical Co., Ltd., priority 2003, dated 2010).)
